Test results as given in US3933800A, “New 3-formylrifamycin SV derivatives” (Gruppo Lepetit S.p.A., priority 1971, dated 1976).

How the values were obtained:
[1] = tested on: RNA dependent DNA polymerase of murine sarcoma virus (endogenous) and DNA dependent DNA polymerase activity of purified enzymes; assay: inhibition of murine sarcoma virus DNA polymerase (3H-dTTP incorporation); assay type: biochemical; details: at a concentration of 2-100 μg/ml or less; 60 min
Experimental: The inhibiting activity of the invention compounds has been tested on RNA dependent DNA polymerase of murine sarcoma virus (endogenous) and DNA dependent DNA polymerase activity of purified enzymes. The inhibition was tested according to the methods described by C. Gurgo et al., Nature, New Biology, 229, 111, 1971.
The effect of different concentrations of drugs on polymerase activity was determined by following 3H-dTTP (tritiated thymine deoxyriboside triphosphate) incorporation into the insoluble fraction. A typical example of the experimental procedures is the following: Isolation of virus and purification of viral polymerase
Virus was isolated and purified from murine sarcoma virus (Moloney isolate) transformed rat cells (78Al cells) and murine sarcoma virus (Harvey isolate) transformed mouse cells (MEH cells) as previously described (Green et al., Proc. Nat. Acad. Sci. USA 67. 385-393, 1970, Rokutanda et al., Nature, 227, 1026-1028, 1970). The virion polymerase was purified 20-40 fold by incubation of purified virus with 0.5% NP-40 (nonidet P-40) in 0.1 M NaCl, 0.01 M Tris buffer (pH 7.6), 0.001 M EDTA for 5 minutes at room temperature and zonal centrifugration in 15-30% sucrose gradients in 10 mM (millimoles) sodium phosphate buffer (pH 7.4), 2.5 mM MgCl2, 10 mM dithiothreitol, and 5% glycerol for 24 hours at 38.000 rpm in a Spinco SW41 rotor. The peak fractions of enzyme activity (13-17) of twenty-two fractions collected, were pooled, and stored at -70°C in 30% glycerol. DNA polymerase assay
Enzyme incubation was performed for 1 hour at 37°C in 100 μl of reaction mixture containing 40 mM Tris buffer (pH 8.0), 5mM dithiothreitol, 30 mM NaCl, 2.5 mM MgCl2, 0.1 mM daTP, dGTP, dCTP, and 10 μCi of ^3 H-dTTP (12-18 Ci/mmole) as described by Green et al., in Proc. Nat. Acad. Sci. US 67, 385-393, 1970. The reaction was terminated by the addition of 150 μ l of 1N perchloric acid. Calf thymus DNA (100 μg) were added as carrier; the radioactive DNA product was processed as described in the two papers mentioned above.
Endogenous RNA dependent DNA polymerase activity was measured after the addition of 0.01% PN-40 to purified virus at the time of assay. The DNA polymerase activity of purified viral polymerase was measured with 2 μg of poly d(A-T) as template and no NP-40. Test for inhibition by rifamycin derivatives
Rifamycin derivatives were dissolved in dimethylsulfoxide (DMSO) at a concentration of 5 mg/ml and stored at 4°C. Inhibition of the endogenous RNA dependent DNA polymerase activity was tested by adding 2 μ l of derivative appropriately diluted in DMSO or 2 μ l of DMSO (control) to the assay mixture prior to addition to disrupted virus which contained 15 to 30 μg of viral protein. Enzyme incubation was performed for 60 minutes at 37°C. Inhibition of purified enzyme was tested by pre-incubation of 2 μl of derivative of DMSO with 30 μl of enzyme (1 to 2 μg protein) for 10 minutes at 37°C; then 70 μ l of substrate mixture were added and the mixture further incubated and processed as described above.

[2] = tested on: bacteria; details: cited from earlier work
[3] = tested on: bacteria which had become resistant to the other rifamycins; details: namely rifampicin; cited from earlier work
[4] = tested on: polymerase from murine leukemia virus (reverse transcriptase); assay: inhibition of polymerase from murine leukemia virus; assay type: biochemical; details: endogenous 70S RNA template
Experimental: The inhibiting effect of reverse transcriptase has been confirmed also by test on polymerase from murine leukemia virus. Murine leukemia virus RNA polymerase was prepared from TRITON X 100 disrupted virions as described by Gallo et al., Nature, New Biology, 232, 141 (1971). Virus of both Rauscher and Moloney types were previously purified by banding in the 1.16 g/ml region of a sucrose density gradient after initial low speed centrifugation to remove cellular debris and cushioning on 60% sucrose through 20% sucrose. Final concentration of virus preparation was at 10^11 particles/ml. As template endogenous 70S RNA was used.

[5] = tested on: leukemic polymerase; assay: inhibition of DNA polymerase of human leukemic blood lymphoblasts; assay type: biochemical; details: synthetic RNA template (poly rA.rU)
From the text: Similar results were found by using tumor cell polymerases of human origin. In this case the inhibiting activity was studied also on normal cells polymerases to characterize a selective effect. Representative rifamycin derivatives of formula I have been evaluated for their effects on […] purified DNA polymerase isolated from (I) human normal (PHA stimulated) blood lymphocytes (2) a lymphoblast cell line (derived from a normal donor) and (3) human leukemic blood lymphoblast. Synthetic and/or native templates were used.
Leukemic lymphoblasts were isolated from the peripheral blood of patients with acute lymphocytic leukemia (ALL) by leukophoresis. The cells were washed and erythrocytes removed by hypotonic lysis. Normal lymphocytes were obtained from the peripheral blood from healthy donors after removal of granulocytes by nylon column chromatography. They were stimulated with phytohemagglutinin (PHA) for 72 hours as described before (Gallo et al., Nature, 228, 927, 1970; Gallo et al. Science, 165, 400, 1968) in order to maximize DNA polymerase activity.
Cellular DNA polymerase were extracted and purified from normal blood (PHA stimulated) lymphocytes, and leukemic blood lymphocytes and 1788 lymphoid cells by homogenization in hypotonic buffer followed by Triton X 100 and/or high salt extraction of the extraylsosomal pellet. After differential centrifugation cellular extracts were further purified by DEAE cellulose, phosphocellulose, and Sephadex G 200 column chromatography. DNA polymerase Assays
DNA polymerase assays were carried out in a final volume of 100 μ l. The assay mixture contained Tris-HCl buffer, pH 8.3, 50 mM; MgAc, 6.0 mM; dithiothretiol, 8.0 mM; NaCl, 60 mM. […]
In these cases reactions were initiated by adding enzyme to the complete reaction mixture which included the inhibitor. […] The products were collected on Millipore filter, washed extensively with 5% TCA and 1 ml. of DMSO-ethanol-0.1 M NaCl mixture (0.5:70;29.5), dried and counted in 2 ml. of BBS3 (Beckman) and 10 ml. of liquifluor (New England Nuclear) in a Packard liquid scintillation counter.

| SMILES | incorporation of 3H-dTTP relative to control tests [1] | antibacterial activity [2] | effect against resistant bacteria [3] | concentration giving inhibition of about 50 percent [4] [µg/mL] | susceptibility compared with synthetic DNA template [5] |
| --- | --- | --- | --- | --- | --- |
| COC1C=COC2(C)Oc3c(C)c(O)c4c(O)c(c(C=NOC(c5ccccc5)c5ccccc5)c(O)c4c3C2=O)NC(=O)C(C)=CC=CC(C)C(O)C(C)C(O)C(C)C(OC(C)=O)C1C (stereo not drawn) [Example 16] | less than 10% | – | – | – | – |
| COC1C=COC2(C)Oc3c(C)c(O)c4c(O)c(c(C=NO)c(O)c4c3C2=O)NC(=O)C(C)=CC=CC(C)C(O)C(C)C(O)C(C)C(OC(C)=O)C1C (stereo not drawn) [oxime of 3-formylrifamycin SV] | – | good antibacterial activity | practically no effect | – | – |
| COC1C=COC2(C)Oc3c(C)c(O)c4c(O)c(c(C=NOCCN5CCOCC5)c(O)c4c3C2=O)NC(=O)C(C)=CC=CC(C)C(O)C(C)C(O)C(C)C(OC(C)=O)C1C (stereo not drawn) [O-morpholinoethyl] | – | good antibacterial activity | practically no effect | – | – |
| CON=Cc1c2c(O)c3c(O)c(C)c4c(c3c1O)C(=O)C(C)(OC=CC(OC)C(C)C(OC(C)=O)C(C)C(O)C(C)C(O)C(C)C=CC=C(C)C(=O)N2)O4 (stereo not drawn) [O-methyl] | – | good antibacterial activity | practically no effect | – | – |
| CCCCCON=Cc1c2c(O)c3c(O)c(C)c4c(c3c1O)C(=O)C(C)(OC=CC(OC)C(C)C(OC(C)=O)C(C)C(O)C(C)C(O)C(C)C=CC=C(C)C(=O)N2)O4 (stereo not drawn) [Example 5] | less than 10% | – | – | 10 to 25 | even more susceptible |
| COC1C=COC2(C)Oc3c(C)c(O)c4c(O)c(c(C=NOCCc5ccccc5)c(O)c4c3C2=O)NC(=O)C(C)=CC=CC(C)C(O)C(C)C(O)C(C)C(OC(C)=O)C1C (stereo not drawn) [Example 13] | less than 10% | – | – | – | – |
| CCCCON=Cc1c2c(O)c3c(O)c(C)c4c(c3c1O)C(=O)C(C)(OC=CC(OC)C(C)C(OC(C)=O)C(C)C(O)C(C)C(O)C(C)C=CC=C(C)C(=O)N2)O4 (stereo not drawn) [Example 4] | less than 10% | – | – | – | – |
| COC1C=COC2(C)Oc3c(C)c(O)c4c(O)c(c(C=NOCCCc5ccccc5)c(O)c4c3C2=O)NC(=O)C(C)=CC=CC(C)C(O)C(C)C(O)C(C)C(OC(C)=O)C1C (stereo not drawn) [Example 14] | less than 10% | – | – | 10 to 25 | even more susceptible |
| CCCCCCCCON=Cc1c2c(O)c3c(O)c(C)c4c(c3c1O)C(=O)C(C)(OC=CC(OC)C(C)C(OC(C)=O)C(C)C(O)C(C)C(O)C(C)C=CC=C(C)C(=O)N2)O4 (stereo not drawn) [Example 6] | less than 10% | – | – | 10 to 25 | even more susceptible |
